Results published in patent publication US8889075B2, “Apparatus for producing water having redox activity” (Kitakyushu Foundation for the Advancement of Industry, …, priority 2007, dated 2014).

Test system: active oxygen responsive calcium channel (TPC1 channel) of tobacco BY-2 cells
Experiment: aequorin luminescence of tobacco BY-2 culture cells after adding reaction water (evaluation of redox activity)
Type: cell-based
Conditions: for suppression of the aequorin luminescence reaction induced by water containing active oxygen species: agent added to the reaction, FIG. 11
Excerpt: In a living organism, Ca^2+ is a signal-transmitting substance which becomes a key in an information transmission path which controls metabolism and gene expression. Usually, a concentration of cytoplasm free calcium ion (hereinafter abbreviated as [Ca^2+]cyt) in live cell is maintained at low concentration and with a difference of 10^6 to 10^7 times compared to extracellular cytoplasm free calcium ion. On a cell membranes of living organisms including plants, calcium channels which constitute calcium inflow paths which are activated and open in response to a specific stimulus exist. The presence of most of calcium channels is elucidated at a gene level or at a protein level. […] As a method of nondestructively measuring the behavior of Ca^2+ in the cell, particularly, a change of [Ca^2+]cyt, a method of monitoring the change of [Ca^2+]cyt in response to various stimulations using cells to which gene of aequorin which is Ca^2+ responsive photoprotein derived from Aequorea Victoria is established. Due to this method, it is possible to monitor the change of [Ca^2+]cyt real time by observing bioluminescence. Accordingly, it is possible to determine whether or not water is turned into water having redox reaction in which the redox action is actually generated and the intracellular response is brought about. […] By evaluating effect of addition of aluminum as an ion channel blocker and effects of an active oxygen removing agent, it is possible to determine whether or not a specific active oxygen responsive calcium channel is stimulated (Kawano, T., Kadono, T., Fumoto, […]., Kuse, M. Isobe, M. Furuichi, T. and Muto, S. (2004) Aluminum as a specific inhibitor of plant TPC1 Ca^2+ channels. Biochemical and Biophysical Research Communications 324 (1): 40-45). Accordingly, by using the experimental system, it is possible to evaluate whether or not active oxygen species are present at a level where active oxygen species can stimulate calcium information transmission which is a key of various physiological action including the cell death or the gene expression in the plant cell. […] 100 ml of water having redox activity is added to 500 ml of suspension of cells in which aequorin is expressed (1:5 mixture, 600 ml in total), and CLA chemiluminescence and aequorin luminescence are measured. The luminescence intensity is marked as relative luminescence intensity (rlu). […]

SMILES | suppression of the aequorin luminescence reaction induced by water containing active oxygen species | concentration of superoxide anion radicals needed for water to have redox activity (intracellular response) (comparison of dissolved oxygen 8 mg/L and 30 mg/L samples, UV plus ultrasonic vibrations, FIG. 12)
O=S(=O)(O)c1cc(O)c(O)c(S(=O)(=O)O)c1 [Tiron] | suppressed | 
[Al+3] [Al^3+] | suppressed | 
[La+3] [La^3+] | suppressed | 
[O]O [superoxide anion radicals] |  | at least 5 mM
